{"source": "patent US20140336220A1", "about": "“COMPOSITION FOR PREVENTING OR TREATING OBESITY COMPRISING REBAMIPIDE” (The Catholic University of Korea Industry-Academic …, priority 2011, published 2014)", "key": {"Th17 cells": {"test_system": "Th17 cells", "test": "Th17 cell inhibition, flow cytometry of blood and spleen cells", "format": "cell-based, mouse", "details": "method: pre-treated at 1000 μM", "procedure": "In order to stimulate CD4+ T cells 1×10 separated from the spleen under differentiation conditions of Th17 cells, the CD4+ T cells 1×10 were divided into a 24-well plate coated with 1 μg/Ml of an anti-CD3 antibody and treated with all of 1 μg/mL of an anti-CD28 antibody, 2 ng/ml of TGF-β, 20 ng/ml of IL-6, 10 ng/ml of anti-IL-4, and 10 ng/ml of anti-IFNr together suitable for stimulating Th17 cells. Then, the cells were stimulated for 1 hour. In this case, the cells were pre-treated with a rebamipide compound at a concentration of 1000 μM and cultured for 1 hour. The collected cells were allowed to react with a PerCP-anti-mouse CD4 antibody and a PE-anti-mouse phospho STATS antibody at 4° C. for 30 minutes in a dark field and washed with FACs buffer (0.002% sodium azide, 0.2% BSA/PBS). These cells were washed twice with Perm Wash buffer and re-floated on the FACs buffer and then analyzed with a flow cytometer."}, "adipocyte": {"test_system": "adipocyte", "test": "Real time PCR of adipogenic and brown fat genes in differentiated adipocyte", "format": "cell-based", "details": "FIG. 9", "procedure": "The inventors of the present disclosure differentiated adipocyte by the method of Example <7-1>. 3 days after differentiation, differentiation of adipocyte was maintained with replacement with a culture medium added with dexamethasone and insulin once per two days, and after 4 days, the cells were treated with trizol and RNA was separated therefrom and cDNA was synthesized. Then, by real time PCR, mRNA expression of c/EBP, adiponectin, Leptin aP2, GLTU, and Cytochrome C1 as proadipogenic transcription factors was observed."}, "[1]": {"test_system": "animal group with obesity induced arthritis", "test": "Type-II-collagen-specific IgG and IgG2a in serum by ELISA", "format": "in vivo, mouse", "details": "serum 1:100, vs obesity induced arthritis group, FIG. 13", "procedure": "Blood was collected from the heart of a mouse in each group and centrifuged at 8000 rpm for 8 minutes at 20° C., so that the mouse serum of each group was obtained from a supernatant of the blood. The serum was diluted at a ratio of 1:100, and type-II-collagen-specific IgG and IgG2a were measured by an ELISA method."}, "[2]": {"test_system": "animal model with obesity induced arthritis", "test": "Arthritis index in obesity induced arthritis (collagen induced arthritis) model", "format": "in vivo, C57BL/6 mouse", "details": "300 mg/kg oral, 10 times, three times per week, up to 61 days, FIG. 11"}, "[3]": {"test_system": "animal model with collagen induced arthritis (CIA)", "test": "Histological inspection of joints in collagen induced arthritis model", "format": "in vivo, mouse", "details": "300 mg/kg oral, after 61 days, H&E, Toluidine blue, safranin O, FIG. 12", "procedure": "Each animal model with collagen induced arthritis (CIA) was orally administered with rebamipide with a dose of 300 mg/kg. After 61 days, euthanasia was administered to the experimental animals. Then, hind legs of the mouse were fixed with 10% formalin, and compounds of calcium were removed from the bone and paraffin was coated. A section of the joint (7 μm) was prepared and stained with hematoxylin and eosin. Further, in order to check damage of cartilage, a histological inspection was carried out by staining with Toluidine blue and safranin O."}, "[4]": {"test_system": "animal models induced with obesity", "test": "Weight reduction effect in mice induced with obesity using a high fat food", "format": "in vivo, C57BL/6(H-2kb) mouse", "details": "300 mg/kg oral", "procedure": "The inventors of the present disclosure prepared animal models induced with obesity in order to check whether rebamipide has an effect of treating obesity. As a test animal, a C57BL/6(H-2kb) mouse was used. In order to prepare animal models induced with obesity, a high fat food was fed to the animal models induced with obesity. After rebamipide was orally administered with a dose of 300 mg/kg to the animal models induced with obesity, weights of a rebamipide-treated group and a control group induced with obesity were measured."}, "[5]": {"test_system": "animal models induced with obesity", "test": "Obesity improvement depending on dose: weight and liver", "format": "in vivo, mouse", "procedure": "In order to check an obesity improvement effect depending on a treatment concentration of rebamipide, the inventors of the present disclosure orally administered rebamipide with a dose of 30 mg/kg and 100 mg/kg to an animal models induced with obesity prepared in Example 1 and then measured weights of the rebamipide treatment group and a mouse induced with obesity as a control group. For in vitro test, on the 63rd day after treatment with rebamipide, an experimental animal was killed and the liver of the mouse was extracted, and then, a size of the mouse and a weight of the liver were measured with the naked eye."}, "[6]": {"test_system": "animal models induced with obesity", "test": "Serum cholesterol, LDL-cholesterol and triglyceride, dose comparison", "format": "in vivo, mouse", "details": "FIG. 7A", "procedure": "An experimental animal group was etherized and blood was collected from the heart. The collected blood was put into a centrifuge tube and centrifuged at 8000 rpm for 8 minutes at 20° C., so that the serum was separated."}, "[7]": {"test_system": "animal models induced with obesity", "test": "Serum glucose, triglyceride and cholesterol by autoanalyzer", "format": "in vivo, mouse", "details": "oral administration, obese mice, FIG. 3", "procedure": "Further, an experimental animal group was etherized and blood was collected from the heart. The collected blood was put into a centrifuge tube and centrifuged at 3000 rpm for 20 minutes, so that the serum was separated and kept in a freezer until it was analyzed at −70° C. Contents of glucose, triglyceride, total cholesterol, HDL-cholesterol, and LDL-cholesterol in the serum were analyzed using an autoanalyzer (Kuadro, Italy)."}, "[8]": {"details": "well treated with 20 μm of rebamipide"}}, "note": "Entries after “also recorded” stand apart in the source; their conditions may differ.", "data": [{"smiles": "O=C(NC(Cc1cc(=O)[nH]c2ccccc12)C(=O)O)c1ccc(Cl)cc1", "note": "(stereo not shown) [rebamipide, 2-(4-chlorobenzoylamino)-3-[2(1H)-quinolinon-4-yl]propionic acid]", "values": [{"measurement": "Th17 cells in blood", "setting": "Th17 cells; FIG. 4A", "result": "significantly reduced"}, {"measurement": "Th17 cells in spleen", "setting": "Th17 cells; FIG. 4B", "result": "significantly reduced"}, {"measurement": "mRNA expression of Cytochrome C1", "setting": "adipocyte; differentiated adipocyte", "result": "reduced depending on a concentration of rebamipide"}, {"measurement": "mRNA expression of GLTU", "setting": "adipocyte; differentiated adipocyte", "result": "reduced depending on a concentration of rebamipide"}, {"measurement": "mRNA expression of Leptin", "setting": "adipocyte; differentiated adipocyte", "result": "reduced depending on a concentration of rebamipide"}, {"measurement": "mRNA expression of aP2", "setting": "adipocyte; differentiated adipocyte", "result": "reduced depending on a concentration of rebamipide"}, {"measurement": "mRNA expression of adiponectin", "setting": "adipocyte; differentiated adipocyte", "result": "reduced depending on a concentration of rebamipide"}, {"measurement": "mRNA expression of c/EBP", "setting": "adipocyte; differentiated adipocyte", "result": "reduced depending on a concentration of rebamipide"}, {"measurement": "level of brown fat gene Cidea", "setting": "adipocyte; [8]", "result": "increased"}, {"measurement": "level of brown fat gene Cox7a1", "setting": "adipocyte; [8]", "result": "increased"}, {"measurement": "level of brown fat gene Elov13", "setting": "adipocyte; [8]", "result": "increased"}, {"measurement": "level of brown fat gene Fgf21", "setting": "adipocyte; [8]", "result": "increased"}, {"measurement": "type-II-collagen-specific IgG2a in serum", "setting": "[1]", "result": "significantly decreased"}, {"measurement": "type-II-collagen-specific IgG in serum", "setting": "[1]", "result": "significantly decreased"}, {"measurement": "arthritis index", "setting": "[2]", "result": "decreased"}, {"measurement": "damage of the joint and cartilage (histology)", "setting": "[3]", "result": "damage of the joint and cartilage was not severe and maintained similarly to a normal mouse"}, {"measurement": "liver appearance with the naked eye", "setting": "[4]; killed on the 51st day, FIG. 1B", "result": "bright red like a liver of a normal mouse"}, {"measurement": "weight", "setting": "[4]; obese mice on high fat food, vs control group, FIG. 1A", "result": "statistically significantly decreased"}, {"measurement": "weight", "setting": "[5]; 30 mg/kg and 100 mg/kg oral, vs control group, FIG. 6A", "result": "statistically reduced"}, {"measurement": "weight reduction effect", "setting": "[5]; 30 mg/kg oral, FIG. 6A", "result": "a weight reduction effect was illustrated"}, {"measurement": "liver appearance", "setting": "[5]; 100 mg/kg oral, 63rd day, FIG. 6B", "result": "bright red similarly to a liver of a normal control mouse"}, {"measurement": "weight reduction effect", "setting": "[5]; 100 mg/kg oral, FIG. 6A", "result": "highest"}, {"measurement": "LDL-cholesterol in serum", "setting": "[6]; 30 mg/kg and 100 mg/kg oral", "result": "statistically significantly reduced"}, {"measurement": "cholesterol in serum", "setting": "[6]; 30 mg/kg and 100 mg/kg oral", "result": "statistically significantly reduced"}, {"measurement": "triglyceride in serum", "setting": "[6]; 30 mg/kg and 100 mg/kg oral", "result": "statistically significantly reduced"}, {"measurement": "reduction effect on serum cholesterol, LDL-cholesterol and triglyceride", "setting": "[6]; 100 mg/kg oral, compared between doses", "result": "generally highest"}, {"measurement": "HDL-cholesterol in serum", "setting": "[7]", "result": "slightly increased; also recorded: not statistically significant but increased"}, {"measurement": "LDL-cholesterol in serum", "setting": "[7]", "result": "statistically significantly reduced; also recorded: statistically significantly decreased"}, {"measurement": "glucose in serum", "setting": "[7]", "result": "statistically significantly reduced; also recorded: statistically significantly decreased"}, {"measurement": "total cholesterol in serum", "setting": "[7]", "result": "statistically significantly reduced; also recorded: statistically significantly decreased"}, {"measurement": "triglyceride in serum", "setting": "[7]", "result": "statistically significantly reduced; also recorded: statistically significantly decreased"}]}]}
